Patent publication US20040156869A1, “2-substituted quinazolin-4-ylamine analogues” (Neurogen Corporation, priority 2002, published 2004)
pKi: −log10 of the molar value.

target: human capsaicin receptor (VR1) (Homo sapiens, UniProt Q8NER1); experiment: Capsaicin receptor binding assay ([3H]RTX competition, VR1-transfected HEK293 membranes)
Sequence (Q8NER1 whole entry): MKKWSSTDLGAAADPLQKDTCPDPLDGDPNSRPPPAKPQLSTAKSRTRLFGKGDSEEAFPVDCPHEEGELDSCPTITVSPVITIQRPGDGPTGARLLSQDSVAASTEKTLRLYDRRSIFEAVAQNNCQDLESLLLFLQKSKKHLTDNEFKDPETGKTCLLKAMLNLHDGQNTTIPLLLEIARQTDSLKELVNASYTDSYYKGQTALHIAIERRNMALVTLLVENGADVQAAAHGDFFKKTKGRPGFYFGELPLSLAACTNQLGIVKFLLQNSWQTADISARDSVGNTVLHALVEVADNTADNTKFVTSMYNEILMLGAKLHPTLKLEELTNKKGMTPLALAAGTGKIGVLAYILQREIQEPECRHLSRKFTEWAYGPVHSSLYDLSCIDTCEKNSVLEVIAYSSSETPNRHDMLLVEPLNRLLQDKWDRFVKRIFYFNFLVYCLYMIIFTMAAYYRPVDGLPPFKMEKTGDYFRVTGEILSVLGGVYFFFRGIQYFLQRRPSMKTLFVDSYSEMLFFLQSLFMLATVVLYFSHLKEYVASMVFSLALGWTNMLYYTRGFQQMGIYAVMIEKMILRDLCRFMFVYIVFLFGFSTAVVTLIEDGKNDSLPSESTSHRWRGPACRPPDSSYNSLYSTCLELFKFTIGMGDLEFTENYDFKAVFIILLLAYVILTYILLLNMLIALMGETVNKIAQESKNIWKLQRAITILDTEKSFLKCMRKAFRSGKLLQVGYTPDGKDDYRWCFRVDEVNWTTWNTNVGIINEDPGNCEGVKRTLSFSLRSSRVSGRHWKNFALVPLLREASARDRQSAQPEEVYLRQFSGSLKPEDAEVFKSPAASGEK

pKi, > 6.00:
OCC1CCCN(Cc2nc(Nc3ccc(C(F)(F)F)cc3)c3ccc(-c4ncccc4C(F)(F)F)cc3n2)C1 (centres unmarked) [Compound 502, {1-[4-(4-Trifluoromethyl-phenylamino)-7-(3-trifluoromethyl-pyridin-2-yl)-quinazolin-2-ylmethyl]-piperidin-3-yl}-methanol]
CCOC(=O)C1CCN(Cc2nc(Nc3ccc(C(F)(F)F)cc3)c3ccc(-c4ncccc4C(F)(F)F)cc3n2)CC1 [Compound 503, 1-[4-(4-Trifluoromethyl-phenylamino)-7-(3-trifluoromethyl-pyridin-2-yl)-quinazolin-2-ylmethyl]-piper idine-4-carboxylic acid ethyl ester]
OCCN1CCN(Cc2nc(Nc3ccc(C(F)(F)F)cc3)c3ccc(-c4ncccc4C(F)(F)F)cc3n2)CC1 [Compound 504, 2-{4-[4-(4-Trifluoromethyl-phenylamino)-7-(3-trifluoromethyl-pyridin-2-yl)-quinazolin-2-ylmethyl]-piperazin-1-yl}-ethanol]
CS(=O)(=O)NCc1nc(Nc2ccc(C(F)(F)F)cc2)c2ccc(-c3ncccc3C(F)(F)F)cc2n1 [Compound 506, N-[4-(4-Trifluoromethyl-phenylamino)-7-(3-trifluoromethyl-pyridin-2-yl)-quinazolin-2-ylmethyl]-methanesulfonamide]
FC(F)(F)c1ccc(Nc2nc(-c3ccncc3)nc3cc(-c4ncccc4C(F)(F)F)ccc23)cc1 [Compound 507, [2-Pyridin-4-yl-7-(3-trifluoromethyl-pyridin-2-yl)-quinazolin-4-yl]-(4-trifluoromethyl-phenyl)-amine]
FC(F)(F)c1ccc(Nc2nc(-c3cccnc3)nc3cc(-c4ncccc4C(F)(F)F)ccc23)cc1 [Compound 508, [2-Pyridin-3-yl-7-(3-trifluoromethyl-pyridin-2-yl)-quinazolin-4-yl]-(4-trifluoromethyl-phenyl)-amine]
COc1ccc(-c2nc(Nc3ccc(C(F)(F)F)cc3)c3ccc(-c4ncccc4C(F)(F)F)cc3n2)cn1 [Compound 509, [2-(6-Methoxy-pyridin-3-yl)-7-(3-trifluoromethyl-pyridin-2-yl)-quinazolin-4-yl]-(4-trifluoromethyl-phenyl)-amine]
FC(F)(F)c1ccc(Nc2nc(C3N=NN=N3)nc3cc(-c4ncccc4C(F)(F)F)ccc23)cc1 [Compound 510, [2-(5H-Tetrazol-5-yl)-7-(3-trifluoromethyl-pyridin-2-yl)-quinazolin-4-yl]-(4-trifluoromethyl-phenyl)-amine]
CC(C)N1CCN(Cc2nc(Nc3ccc(C(F)(F)F)cc3)c3ccc(-c4ncccc4C(F)(F)F)cc3n2)CC1 [Compound 512, [2-(4-Isopropyl-piperazin-1-ylmethyl)-7-(3-trifluoromethyl-pyridin-2-yl)-quinazolin-4-yl]-(4-trifluoromethyl-phenyl)-amine]
COCCN1CCN(Cc2nc(Nc3ccc(C(F)(F)F)cc3)c3ccc(-c4ncccc4C(F)(F)F)cc3n2)CC1 [Compound 514, [2-[4-(2-Methoxy-ethyl)-piperazin-1-ylmethyl]-7-(3-trifluoromethyl-pyridin-2-yl)-quinazolin-4-yl]-(4-trifluoromethyl-phenyl)-amine]
CN(C)CCN1CCN(Cc2nc(Nc3ccc(C(F)(F)F)cc3)c3ccc(-c4ncccc4C(F)(F)F)cc3n2)CC1 [Compound 515, [2-[4-(2-Dimethylamino-ethyl)-piperazin-1-ylmethyl]-7-(3-trifluoromethyl-pyridin-2-yl)-quinazolin-4-yl]-(4-trifluoromethyl-phenyl)-amine]
FC(F)(F)c1ccc(Nc2nc(CN3CCN(CCN4CCCC4)CC3)nc3cc(-c4ncccc4C(F)(F)F)ccc23)cc1 [Compound 517, [2-[4-(Pyrrolidin-1-yl-ethyl)-piperazin-1-ylmethyl]-7-(3-trifluoromethyl-pyridin-2-yl)-quinazolin-4-yl]-(4-trifluoromethyl-phenyl)-amine]
FC(F)(F)c1ccc(Nc2nc(CN3CCN(CCN4CCOCC4)CC3)nc3cc(-c4ncccc4C(F)(F)F)ccc23)cc1 [Compound 518, [2-[4-(2-Morpholin-4-yl-ethyl)-piperazin-1-ylmethyl]-7-(3-trifluoromethyl-pyridin-2-yl)-quinazolin-4-yl]-(4-trifluoromethyl-phenyl)-amine]
CN(C)CCCN1CCN(Cc2nc(Nc3ccc(C(F)(F)F)cc3)c3ccc(-c4ncccc4C(F)(F)F)cc3n2)CC1 [Compound 519, [2-[4-(3-Dimethylamino-propyl)-piperazin-1-ylmethyl]-7-(3-trifluoromethyl-pyridin-2-yl)-quinazolin-4-yl]-(4-trifluoromethyl-phenyl)-amine]
COCCN(CCOC)Cc1nc(Nc2ccc(C(F)(F)F)cn2)c2ccc(-c3ncccc3C(F)(F)F)cc2n1 [Compound 521, [2-{[Bis-(2-methoxy-ethyl)-aminol]-methyl}-7-(3-trifluoromethyl-pyridin-2-yl)-quinazolin-4-yl]-(5-trifluoromethyl-pyridin-2-yl)-amine]
CN1CCN(Cc2nc(Nc3ccc(C(F)(F)F)cn3)c3ccc(-c4ncccc4C(F)(F)F)cc3n2)CC1 [Compound 522, [2-(4-Methyl-piperazin-1-ylmethyl)-7-(3-trifluoromethyl-pyridin-2-yl)-quinazolin-4-yl]-(5-trifluoromethyl-pyridin-2-yl)-amine]
CC(c1ccc(Nc2nc(CN3CCCCC3)nc3cc(-c4ncccc4C(F)(F)F)ccc23)cc1)C(F)(F)F (centres unmarked) [Compound 523, [2-Piperidin-1-ylmethyl-7-(3-trifluoromethyl-pyridin-2-yl)-quinazolin-4-yI]-[4-(2,2,2-trifluoro-1-methyl-ethyl)-phenyl]-amine]
CC(c1ccc(Nc2nc(CN3CCOCC3)nc3cc(-c4ncccc4C(F)(F)F)ccc23)cc1)C(F)(F)F (centres unmarked) [Compound 524, [2-Morpholin-4-ylmethyl-7-(3-trifluoromethyl-pyridin-2-yl)-quinazolin-4-yl]-[4-(2,2,2-trifluoro-1-methyl-ethyl)-phenyl]-amine]
CC1CN(Cc2nc(Nc3ccc(C(C)C(F)(F)F)cc3)c3ccc(-c4ncccc4C(F)(F)F)cc3n2)CC(C)O1 (centres unmarked) [Compound 525, [2-(2,6-Dimethyl-morpholin-4-ylmethyl)-7-(3-trifluoromethyl-pyridin-2-yl)-quinazolin-4-yl]-[4-(2,2,2-trifluoro-1-methyl-ethyl)-phenyl]-amine]
CC(c1ccc(Nc2nc(CN3CCN(C)CC3)nc3cc(-c4ncccc4C(F)(F)F)ccc23)cc1)C(F)(F)F (centres unmarked) [Compound 526, [2-(4-Methyl-piperazin-1-ylmethyl)-7-(3-trifluoromethyl-pyridin-2-yl)-quinazolin-4-yl]-[4-(2,2,2-trifluoro-1-methyl-ethyl)-phenyl]-amine]
COCCN(CCOC)Cc1nc(Nc2ccc(C(C)C(F)(F)F)cc2)c2ccc(-c3ncccc3C(F)(F)F)cc2n1 (centres unmarked) [Compound 527, [2-{[Bis-(2-methoxy-ethyl)-amino]-methyl}-7-(3-trifluoromethyl-pyridin-2-yl)-quinazolin-4-yl]-[4-(2,2,2-trifluoro-1-methyl-ethyl)-phenyl]-amine]
CCNCc1nc(Nc2ccc(C(F)(F)F)cc2)c2ccc(-c3ncccc3C(F)(F)F)cc2n1 [Compound 531, [2-Ethylaminomethyl-7-(3-trifluoromethyl-pyridin-2-yl)-quinazolin-4-yl]-(4-trifluoromethyl-phenyl)-amine]
OCCNCc1nc(Nc2ccc(C(F)(F)F)cc2)c2ccc(-c3ncccc3C(F)(F)F)cc2n1 [Compound 534, 2-{[4-(4-Trifluoromethyl-phenylamino)-7-(3-trifluoromethyl-pyridin-2-yl)-quinazolin-2-ylmethyl]-amino}-ethanol]
COCCNCc1nc(Nc2ccc(C(F)(F)F)cc2)c2ccc(-c3ncccc3C(F)(F)F)cc2n1 [Compound 535, [2-[(2-Methoxy-ethylamino)-methyl]-7-(3-trifluoromethyl-pyridin-2-yl)-quinazolin-4-yl]-(4-trifluoromethyl-phenyl)-amine]
CC(C)CNCc1nc(Nc2ccc(C(F)(F)F)cc2)c2ccc(-c3ncccc3C(F)(F)F)cc2n1 [Compound 536, [2-(Isobutylamino-methyl)-7-(3-trifluoromethyl-pyridin-2-yl)-quinazolin-4-yl]-(4-trifluoromethyl-phenyl)-amine]
CC(C)CCNCc1nc(Nc2ccc(C(F)(F)F)cc2)c2ccc(-c3ncccc3C(F)(F)F)cc2n1 [Compound 537, [2-[(3-Methyl-butylamino)-methyl]-7-(3-trifluoromethyl-pyridin-2-yl)-quinazolin-4-yl]-(4-trifluoromethyl-phenyl)-amine]
CCCCCCNCc1nc(Nc2ccc(C(F)(F)F)cc2)c2ccc(-c3ncccc3C(F)(F)F)cc2n1 [Compound 539, [2-Hexylaminomethyl-7-(3-trifluoromethyl-pyridin-2-yl)-quinazolin-4-yl]-(4-trifluoromethyl-phenyl)-amine]
CCCCCCCCNCc1nc(Nc2ccc(C(F)(F)F)cc2)c2ccc(-c3ncccc3C(F)(F)F)cc2n1 [Compound 540, [2-Octylaminomethyl-7-(3-trifluoromethyl-pyridin-2-yl)-quinazolin-4-yl]-(4-trifluoromethyl-phenyl)-amine]
FC(F)(F)c1ccc(Nc2nc(CN3CCOCC3)nc3cc(-c4ncccc4C(F)(F)F)cnc23)cn1 [Compound 542, [2-Morpholin-4-ylmethyl-7-(3-trifluoromethyl-pyridin-2-yl)-pyrido[3,2-d]pyrimidin-4-yl]-(6-trifluoromethyl-pyridin-3-yl)-amine]
